In PubChem BioAssay (NCI):
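Step 1: Grow cells in 96-well plates. Step 2: Expose to compound for 48 hours at 5 concentrations. Step 3: Interpolate endpoints linearly; if unreached, use highest concentration. GI50: concentration for 50% inhibition of growth. TGI marks complete inhibition of growth.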

What was measured:
Assay in all cases: growth of human tumour cells (NCI), 48 h
[1] = test system: MDA-MB-231 breast
[2] = test system: A498 renal
[3] = test system: OVCAR-4 ovarian
[4] = test system: SK-MEL-5 melanoma
[5] = test system: HT29 colon
[6] = test system: U251 CNS
[7] = test system: OVCAR-8 ovarian
[8] = test system: OVCAR-3 ovarian
[9] = test system: DU-145 prostate
[10] = test system: HOP-92 NSCLC
[11] = test system: M14 melanoma
[12] = test system: NCI-H23 lung
[13] = test system: HCT-15 colon
[14] = test system: HS 578T breast
[15] = test system: PC-3 prostate
[16] = test system: SF-268 CNS
[17] = test system: OVCAR-5 ovarian
[18] = test system: KM12 colon
[19] = test system: RXF 393 renal
[20] = test system: RPMI-8226 leukemia
[21] = test system: SNB-19 CNS
[22] = test system: K-562 leukemia
[23] = test system: SW-620 colon
[24] = test system: TK-10 renal
[25] = test system: BT-549 breast
[26] = test system: MCF7 breast
[27] = test system: SK-MEL-28 melanoma
[28] = test system: A549 NSCLC
[29] = test system: MOLT-4 leukemia
[30] = test system: SF-295 CNS
[31] = test system: NCI/ADR-RES ovarian
[32] = test system: MALME-3M melanoma
[33] = test system: EKVX NSCLC
[34] = test system: UO-31 renal
[35] = test system: SK-MEL-2 melanoma
[36] = test system: HOP-62 NSCLC
[37] = test system: SF-539 CNS
[38] = test system: LOX IMVI melanoma
[39] = test system: CAKI-1 renal
[40] = test system: NCI-H522 lung
[41] = test system: MDA-MB-435
[42] = test system: CCRF-CEM leukemia
[43] = test system: COLO 205 colon
[44] = test system: ACHN renal
[45] = test system: UACC-62 melanoma
[46] = test system: NCI-H226 lung
[47] = test system: HCC-2998 colon
[48] = test system: NCI-H460 lung
[49] = test system: IGROV1 ovarian
[50] = test system: SNB-75 CNS
[51] = test system: UACC-257 melanoma
[52] = test system: SK-OV-3 ovarian
[53] = test system: HCT-116 colon
[54] = test system: SN12C renal
[55] = test system: T-47D breast
[56] = test system: 786-0 renal
[57] = test system: HL-60(TB) leukemia
[58] = test system: SR leukemia

Oc1c(Br)cc(Cl)cc1C(c1cc(Cl)cc(Br)c1O)C(Cl)(Cl)Cl
GI50 [1]: 1.97 µM
TGI [1]: 5.98 µM
GI50 [2]: 1.69 µM
TGI [2]: 8.24 µM
GI50 [3]: 2.86 µM
TGI [3]: 13.1 µM
GI50 [4]: 1.64 µM
TGI [4]: 3.83 µM
GI50 [5]: 3.26 µM
TGI [5]: 10.6 µM
GI50 [6]: 2.18 µM
TGI [6]: 10.9 µM
GI50 [7]: 2.86 µM
TGI [7]: 13 µM
GI50 [8]: 3.14 µM
TGI [8]: 10.1 µM
GI50 [9]: 4.74 µM
TGI [9]: 16.2 µM
GI50 [10]: 0.457 µM
TGI [10]: 2.48 µM
GI50 [11]: 3.74 µM
TGI [11]: 12.8 µM
GI50 [12]: 1.8 µM
TGI [12]: 7.01 µM
GI50 [13]: 1.39 µM
TGI [13]: 9.06 µM
GI50 [14]: 2.46 µM
TGI [14]: > 21.9 µM
GI50 [15]: 2.11 µM
TGI [15]: 8.21 µM
GI50 [16]: 3.61 µM
TGI [16]: 15.2 µM
GI50 [17]: 3.58 µM
TGI [17]: 13 µM
GI50 [18]: 2.8 µM
TGI [18]: 9.3 µM
GI50 [19]: 2.73 µM
TGI [19]: 8.77 µM
GI50 [20]: 0.961 µM
TGI [20]: 6.47 µM
GI50 [21]: 3.13 µM
TGI [21]: 15.9 µM
GI50 [22]: 0.832 µM
TGI [22]: 16.8 µM
GI50 [23]: 3.28 µM
TGI [23]: 13 µM
GI50 [24]: 4.3 µM
TGI [24]: 13.3 µM
GI50 [25]: 3.22 µM
TGI [25]: 10.1 µM
GI50 [26]: 2.83 µM
TGI [26]: 10.9 µM
GI50 [27]: 3.7 µM
TGI [27]: 14.9 µM
GI50 [28]: 3.13 µM
TGI [28]: 11.7 µM
GI50 [29]: 3.32 µM
TGI [29]: 9.95 µM
GI50 [30]: 1.59 µM
TGI [30]: 5.29 µM
GI50 [31]: 2.48 µM
TGI [31]: 8.66 µM
GI50 [32]: 2.73 µM
TGI [32]: 7.78 µM
GI50 [33]: 2.72 µM
TGI [33]: 11.3 µM
GI50 [34]: 2.81 µM
TGI [34]: 9.61 µM
GI50 [35]: 2.31 µM
TGI [35]: 5.08 µM
GI50 [36]: 3.02 µM
TGI [36]: 9.16 µM
GI50 [37]: 3.15 µM
TGI [37]: 10.7 µM
GI50 [38]: 2.97 µM
TGI [38]: 11.4 µM
GI50 [39]: 2.09 µM
TGI [39]: 8.73 µM
GI50 [40]: 1.86 µM
TGI [40]: 6.07 µM
GI50 [41]: 2.94 µM
TGI [41]: 10.1 µM
GI50 [42]: 0.996 µM
TGI [42]: 9.71 µM
GI50 [43]: 1.87 µM
TGI [43]: 3.51 µM
GI50 [44]: 3.06 µM
TGI [44]: 9.81 µM
GI50 [45]: 1.94 µM
TGI [45]: 8.99 µM
GI50 [46]: 2.72 µM
TGI [46]: 8.61 µM
GI50 [47]: 2.63 µM
TGI [47]: 8.48 µM
GI50 [48]: 2.4 µM
TGI [48]: 8.53 µM
GI50 [49]: 3.95 µM
TGI [49]: 16.7 µM
GI50 [50]: 2.64 µM
TGI [50]: 12.3 µM
GI50 [51]: 2.33 µM
TGI [51]: 6.57 µM
GI50 [52]: 2.94 µM
TGI [52]: 8.93 µM
GI50 [53]: 2.12 µM
TGI [53]: 7.91 µM
GI50 [54]: 2.1 µM
TGI [54]: 11.8 µM
GI50 [55]: 2.84 µM
TGI [55]: 11.1 µM
GI50 [56]: 2.96 µM
TGI [56]: 10.3 µM
GI50 [57]: 3.02 µM
TGI [57]: 7.6 µM

CC[C@]12C=CCN3CC[C@@]4(c5ccc(OC)cc5N(C)[C@H]4[C@@](O)(C(=O)OC)[C@@H]1OC(=O)CCCN1CCN(CCCC(=O)O[C@@H]4[C@]5(CC)C=CCN6CC[C@@]7(c8ccc(OC)cc8N(C)[C@H]7[C@@]4(O)C(=O)OC)[C@@H]65)CC1)[C@@H]32
GI50 [1]: 0.665 µM
TGI [1]: 2.02 µM
GI50 [2]: 1.6 µM
TGI [2]: 3.49 µM
GI50 [3]: 1.11 µM
TGI [3]: 2.44 µM
GI50 [4]: 1.48 µM
TGI [4]: 2.83 µM
GI50 [5]: 0.324 µM
TGI [5]: 1.2 µM
GI50 [6]: 1.35 µM
TGI [6]: 2.86 µM
GI50 [7]: 1.55 µM
TGI [7]: 3.36 µM
GI50 [8]: 1.38 µM
TGI [8]: 2.82 µM
GI50 [9]: 0.701 µM
TGI [9]: 1.99 µM
GI50 [11]: 1.87 µM
TGI [11]: 3.61 µM
GI50 [12]: 1.59 µM
TGI [12]: 3.13 µM
GI50 [13]: 1.2 µM
TGI [13]: 2.61 µM
GI50 [14]: 1.39 µM
TGI [14]: 3.38 µM
GI50 [15]: 0.35 µM
TGI [15]: 1.57 µM
GI50 [16]: 0.919 µM
TGI [16]: 2.38 µM
GI50 [17]: 1.82 µM
TGI [17]: 3.47 µM
GI50 [18]: 0.985 µM
TGI [18]: 2.31 µM
GI50 [19]: 0.484 µM
TGI [19]: 1.72 µM
GI50 [20]: 0.547 µM
TGI [20]: 2.26 µM
GI50 [21]: 1.23 µM
TGI [21]: 2.59 µM
GI50 [22]: 0.18 µM
TGI [22]: 0.365 µM
GI50 [23]: 1.6 µM
TGI [23]: 3.21 µM
GI50 [24]: 1.3 µM
TGI [24]: 2.78 µM
GI50 [25]: 1.78 µM
TGI [25]: 3.33 µM
GI50 [26]: 0.548 µM
TGI [26]: 1.96 µM
GI50 [27]: 1.4 µM
TGI [27]: 2.78 µM
GI50 [28]: 1.31 µM
TGI [28]: 2.95 µM
GI50 [29]: 0.483 µM
TGI [29]: 1.87 µM
GI50 [30]: 1.74 µM
TGI [30]: 3.16 µM
GI50 [58]: 0.252 µM
TGI [58]: 0.738 µM
GI50 [31]: 1.45 µM
TGI [31]: 3.17 µM
GI50 [32]: 1.6 µM
TGI [32]: 3.11 µM
GI50 [33]: 1.44 µM
TGI [33]: 2.97 µM
GI50 [34]: 1.1 µM
TGI [34]: 2.33 µM
GI50 [35]: 1.88 µM
TGI [35]: 3.59 µM
GI50 [36]: 1.28 µM
TGI [36]: 2.81 µM
GI50 [37]: 1.38 µM
TGI [37]: 2.7 µM
GI50 [38]: 0.399 µM
TGI [38]: 1.5 µM
GI50 [39]: 0.436 µM
TGI [39]: 1.91 µM
GI50 [40]: 1.78 µM
TGI [40]: 3.52 µM
GI50 [41]: 1.25 µM
TGI [41]: 2.63 µM
GI50 [42]: 1.23 µM
TGI [42]: 3.03 µM
GI50 [43]: 1.67 µM
TGI [43]: 3.25 µM
GI50 [44]: 0.857 µM
TGI [44]: 2.07 µM
GI50 [45]: 1.68 µM
TGI [45]: 3.13 µM
GI50 [46]: 1.73 µM
TGI [46]: 3.47 µM
GI50 [47]: 1.66 µM
TGI [47]: 3.26 µM
GI50 [48]: 1.11 µM
TGI [48]: 2.5 µM
GI50 [49]: 0.635 µM
TGI [49]: 1.99 µM
GI50 [50]: 0.564 µM
TGI [50]: 1.95 µM
GI50 [51]: 1.96 µM
TGI [51]: 3.69 µM
GI50 [52]: 2.07 µM
TGI [52]: 3.63 µM
GI50 [53]: 0.317 µM
TGI [53]: 1.05 µM
GI50 [54]: 1.14 µM
TGI [54]: 2.55 µM
GI50 [55]: 1.6 µM
TGI [55]: 3.44 µM
GI50 [56]: 1.44 µM
TGI [56]: 2.91 µM
GI50 [57]: 0.464 µM
TGI [57]: 1.85 µM
